In patent publication US20240002368A1 (QILU REGOR THERAPEUTICS INC., priority 2020, published 2024):
Read-outs that look alike come from different tables or passages of the source.

System: STING pathway
Assay: IFN β reporter assay (HTRF, 2′3′-cGAMP-stimulated THP1 cells)
Format: cell-based, human
Protocol: STING pathway deactivation by the compounds described herein was measured using THP1 cells. The THP1 Cells (obtained from ATCC, Cat #TIB-202) were maintained in RPMI-1640 (Gibco, Cat #22400105), 10% FBS, 1% Pen-Strep, 0.05 mM 2-mercaptoethanol. For STING activation, 2′3′-cGAMP (MW 718.38, obtained from Invivogen) was used and prepared in serum-free RPMI-1640 media. Growth media: RPMI-1640 (HEPES, glutamine), 10% FBS, 1% Pen-Strep, 0.05 mM 2-mercaptoethanol. Assay media: RPMI-1640 (HEPES, glutamine), 0.5% FBS. 2′3′-cGAMP: Dissolve 2′3′-cGAMP to 10 mM stock in H2O.
The cells were prepared and seeded at 100K, 90 μL/well with assay media in cell culture plate (Greiner 655180). The compounds were added in 96-well tissue culture plates by Tecan D300e for a final concentration of 0.00137-3 μM.
Lipo2000/3000 and 2′3′-cGAMP stock solutions were diluted respectively in serum-free RPMI-1640 media. The diluted 2′3′-cGAMP and Lipo (V/V=1:1) were mixed and stood for 15 min at room temperature. 10 μL 2,3-cGAMP/Lipofectamine (10×) was transferred to the 96-well assay plate with a final 2′3′-cGAMP concentration of 5 μM. The cell plates were centrifuged at 1000 rpm for 5 min after incubating at 37° C., 5% CO2 overnight.
All reagents (human IFN beta kit, Cisbio 62HIFNBPEG) were warmed to room temperature for at least 30 min before the assay. The instructions of the kit were followed to prepare the detection media. 14 μL of cell supernatants was transferred into their dedicated wells in 384-well plate. Then 2 μL of the activation reagent solution and 4 μL of the mixed antibody solution were added to all wells. The plate was sealed and incubated for 3 h at room temperature.
The HTRF signal was read in Envision (PerkinElmer). IFN β reporter activity was then measured. The calculated ratio is the signal at 665 nm/signal at 615 nm. IC50 values are calculated by using standard methods known in the art.

[1] = Homo sapiens, THP-1, THP1 cells, 5 μM 2′3′-cGAMP, IFN β secretion inhibition, class symbols, read-out: IFN β reporter activity IC50
[2] = Homo sapiens, THP-1, read-out: IFN β reporter activity IC50

Row | Compound | IC50 [1] [nM] | also measured
1 | O=C(Nc1c[nH]c2cc(F)c(F)cc12)c1cc2ccc(Br)cn2n1 [Example 58] | 200 to 1000 | 
2 | C[C@@H]1COCCN1c1cc2c(cc1F)c(C(=O)Nc1c[nH]c3ccc(F)cc13)cn2C [Example 50] | 200 to 1000 | 
3 | O=C(Nc1c[nH]c2ccc(F)cc12)c1cc2ccc(Br)cn2n1 [Example 57] | < 50 | 
4 | COC(=O)c1ccc2c(C(=O)Nc3c[nH]c4ccc(F)cc34)n[nH]c2c1 [Example 27] | > 1000 | 
5 | CN(C)Cc1ccc2[nH]cc(NC(=O)c3cn(C)c4cc(C(F)(F)F)ccc34)c2c1 [Example 111, N-(5-((dimethylamino)methyl)-1H-indol-3-yl)-1-methyl-6-(trifluoromethyl)-1H-indole-3-carboxamide] | > 1000 | 
6 | O=C(Nc1c[nH]c2cc(F)c(F)cc12)c1c[nH]c2cc(C(F)(F)F)ccc12 [Example 52] | < 50 | 
7 | Cn1cc(C(=O)Nc2c[nH]c3ccc(P(C)(C)=O)cc23)c2ccc(C(F)(F)F)cc21 [Example 21] | > 1000 | 
8 | Cn1cc(C(=O)Nc2c[nH]c3ccc(N4CCN(C(=O)OC(C)(C)C)CC4=O)cc23)c2ccc(C(F)(F)F)cc21 [Example 38] | 50 to 200 | 
9 | Cn1cc(C(=O)Nc2c[nH]c3ccc(F)cc23)c2cc(F)c(CN3CCC(F)(F)CC3)cc21 [Example 98] | < 50 | 
10 | O=C(Nc1c[nH]c2ccc(F)cc12)c1cnn2cc(Br)ccc12 [Example 24] | < 50 | 
11 | O=C(Nc1c[nH]c2cc(F)c(F)cc12)c1cc2ccc(C(F)(F)F)cc2[nH]1 [Example 79] | 50 to 200 | 
12 | O=C(Nc1c[nH]c2ccccc12)c1n[nH]c2cc(C(F)(F)F)ccc12 [Example 2] |  | IC50 (THP1 cells, 5 μM 2′3′-cGAMP, IFN β secretion inhibition, class symbols, read-out: IFN β reporter activity IC50): 50 to 200 nM
13 | O=C(Nc1c[nH]c2ccc(F)cc12)c1n[nH]c2ncc(Br)cc12 [Example 7] | 50 to 200 | 
14 | O=C(Nc1c[nH]c2cc(F)c(F)cc12)c1n[nH]c2ccccc12 [Example 63] | 50 to 200 | 
15 | O=C(Nc1c[nH]c2ccc(F)cc12)c1n[nH]c2cc(Oc3ccncc3)ccc12 [Example 62] | > 1000 | 
16 | O=C(Nc1c[nH]c2ccccc12)c1n[nH]c2cc(C3CCOCC3)ccc12 [Example 16] | 50 to 200 | 
17 | CN(C)Cc1cc2c(cc1F)c(C(=O)Nc1c[nH]c3ccc(F)cc13)cn2C [Example 94] | > 1000 | 
18 | Cn1cc(C(=O)Nc2c[nH]c3ccc(F)cc23)c2cc(F)c(C3=CCOCC3)cc21 [Example 80] | 50 to 200 | 
19 | CN(C(=O)c1n[nH]c2cc(C(F)(F)F)ccc12)c1c[nH]c2ccc(F)cc12 [Comparator E, reference compound] |  | IC50 (Homo sapiens, THP-1, THP1 cells, 5 μM 2′3′-cGAMP, IFN β secretion inhibition, numeric values (comparators), read-out: IFN β reporter activity IC50): 12000 nM
20 | O=C(O)c1ccc2c(C(=O)Nc3c[nH]c4ccc(F)cc34)n[nH]c2c1 [Example 88, 3-[(5-fluoro-1H-indol-3-yl)carbamoyl]-1H-indazole-6-carboxylic acid] | > 1000 | 
21 | Cn1cc(C(=O)Nc2c[nH]c3cc(F)c(Cl)cc23)c2cc(F)c(C3CCOCC3)cc21 [Example 48] | 50 to 200 | 
22 | O=C(Nc1c[nH]c2ccc(F)cc12)c1n[nH]c2cc(C3CCOCC3)ccc12 [Example 28] | 50 to 200 | 
23 | O=C(Nc1c[nH]c2ccc(F)cc12)c1n[nH]c2nc(OCC(F)(F)F)ccc12 [Example 69] | 50 to 200 | 
24 | Cn1cc(C(=O)Nc2c[nH]c3ccc(F)cc23)c2ccc(Cl)nc21 [Example 71] |  | IC50 [2]: 50 to 200 nM
25 | CCCCc1ccc2c(C(=O)Nc3c[nH]c4ccc(F)cc34)n[nH]c2c1 [Example 61] | 50 to 200 | 
26 | CN1CCC(c2cc3c(cc2Cl)c(C(=O)Nc2c[nH]c4ccc(C#N)cc24)cn3C)CC1 [Example 120, 5-chloro-N-(5-cyano-1H-indol-3-yl)-1-methyl-6-(1-methyl-4-piperidyl)indole-3-carboxamide] | > 1000 | 
27 | O=C(Nc1c[nH]c2ccccc12)c1cc2ccc(C(F)(F)F)cc2[nH]1 [Example 56] | 50 to 200 | 
28 | O=C(Nc1c[nH]c2ccc(F)cc12)c1cc2ccc(C(F)(F)F)cc2[nH]1 [Example 78] | 50 to 200 | 
29 | CC(C)n1nc(C(=O)Nc2c[nH]c3ccccc23)c2ccc(C(F)(F)F)cc21 [Example 5] |  | IC50 [2]: 200 to 1000 nM
30 | Cn1cc(C(=O)Nc2c[nH]c3ccc(F)cc23)c2cc(F)c(CN3CCC(F)CC3)cc21 [Example 102] | 200 to 1000 | 
